How the values were obtained:
Format in all cases: in vivo
[1] = tested on: Kochia (Kochia scoparia); experiment: Test A preemergence
How it was run: (§1)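 Visual injury, scored on a 0–100 scale relative to untreated controls, was recorded about 10 d after application. Treatments were a preemergence soil spray over planted seeds or a postemergence spray on plants at the one- to two-leaf stage, 2 to 10 cm tall, all in loam soil–sand blend in the greenhouse.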

[2] = tested on: barnyardgrass (Echinochloa crus-galli); experiment: Test A preemergence
How it was run: as §1

[3] = tested on: giant foxtail (Setaria faberii); experiment: Test A preemergence
How it was run: as §1

[4] = tested on: pigweed (Amaranthus retroflexus); experiment: Test A preemergence
[5] = tested on: ragweed (common ragweed, Ambrosia elatior); experiment: Test A preemergence
How it was run: as §1

[6] = tested on: ryegrass, Italian (Italian ryegrass, Lolium multiflorum); experiment: Test A preemergence
How it was run: as §1

[7] = tested on: Galium (catchweed bedstraw, Galium aparine); experiment: Test A postemergence; settings: for Plant response rating, Galium: postemergence, 0 to 100 scale (0 no effect, 100 complete control)
How it was run: as §1

[8] = tested on: Kochia (Kochia scoparia); experiment: Test A postemergence
How it was run: as §1

[9] = tested on: barnyardgrass (Echinochloa crus-galli); experiment: Test A postemergence; settings: for Plant response rating, Barnyardgrass: postemergence, 0 to 100 scale (0 no effect, 100 complete control)
How it was run: as §1

[10] = tested on: blackgrass (Alopecurus myosuroides); experiment: Test A postemergence
How it was run: as §1

[11] = tested on: corn (Zea mays); experiment: Test A postemergence
How it was run: as §1

[12] = tested on: giant foxtail (Setaria faberii); experiment: Test A postemergence; settings: for Plant response rating, Foxtail, Giant: postemergence, 0 to 100 scale (0 no effect, 100 complete control)
How it was run: as §1

[13] = tested on: pigweed (Amaranthus retroflexus); experiment: Test A postemergence; settings: for Plant response rating, Pigweed: postemergence, 0 to 100 scale (0 no effect, 100 complete control)
How it was run: as §1

[14] = tested on: ragweed (common ragweed, Ambrosia elatior); experiment: Test A postemergence; settings: for Plant response rating, Ragweed: postemergence, 0 to 100 scale (0 no effect, 100 complete control)
How it was run: as §1

[15] = tested on: ryegrass, Italian (Italian ryegrass, Lolium multiflorum); experiment: Test A postemergence
How it was run: as §1

[16] = tested on: wheat (Triticum aestivum); experiment: Test A postemergence
How it was run: as §1

[17] = tested on: barnyardgrass (Echinochloa crus-galli); experiment: Test B flooded paddy test; settings: Flood, 250 g ai/ha
How it was run: (§2)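 Compound goes directly into floodwater once pots are flooded 3 cm above soil, targeting plants at two leaves; the water depth is then held for the test duration. Plants sit 13–15 d in a greenhouse and are rated visually, 100 denoting complete control.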

[18] = tested on: ducksalad (Heteranthera limosa); experiment: Test B flooded paddy test; settings: Flood, 250 g ai/ha
How it was run: as §2

[19] = tested on: rice (Oryra sativa); experiment: Test B flooded paddy test; settings: Flood, 250 g ai/ha
How it was run: as §2

[20] = tested on: sedge, umbrella (small-flower umbrella sedge, Cyperus difformis); experiment: Test B flooded paddy test; settings: 250 g ai/ha, Flood
How it was run: as §2

[21] = 125 g ai/ha, Preemergence, visual injury rating after approximately 10 d
[22] = 125 g ai/ha, Postemergence, visual injury after approximately 10 d, 0 to 100 scale where 0 is no effect and 100 is complete control
[23] = scale of 0 to 100 where 0 is no effect and 100 is complete control
[24] = 125 g ai/ha, Preemergence, visual injury after approximately 10 d, 0 to 100 scale where 0 is no effect and 100 is complete control
[25] = 500 g ai/ha, preemergence, 0 to 100 scale, 0 = no effect, 100 = complete control
[26] = 125 g ai/ha, preemergence, visual rating after approx. 10 d, 0 to 100 scale where 0 is no effect and 100 is complete control
[27] = 125 g ai/ha, visual injury after approximately 10 d
[28] = 500 g ai/ha, visual injury, approx. 10 d
[29] = 125 g ai/ha, postemergence, visual injury after approximately 10 d, 0 to 100 scale (0 no effect, 100 complete control)
[30] = 500 g ai/ha, postemergence, visual injury, 0 to 100 scale (0 no effect, 100 complete control), approx. 10 d
[31] = 0 to 100 scale where 0 is no effect and 100 is complete control, 13 to 15 d

Cc1ccc([C@H]2CN(C)C(=O)[C@@H]2C(=O)Nc2ccccc2[S+](C)[O-])cc1F (single isomer, unassigned) [Compound 987]
40%: pest or weed control at 500 g/ha ([6]; Lolium multiflorum, pre-emergence, 240 h, 500 g ai/ha, preemergence, visual injury rating about 10 d after treatment, 0 to 100 scale (0 no effect, 100 complete control), read-out: Ryegrass, Italian plant response rating) | pest or weed control at 125 g/ha ([7]; Galium, post-emergence, 240 h, 125 g ai/ha, Postemergence, visual injury after approximately 10 d, 0 to 100 scale where 0 is no effect and 100 is complete control, read-out: Plant response rating, Galium)
0: Kochia plant response rating (0 to 100 scale, 0 is no effect, 100 is complete control) [1, 21] | Pigweed plant response rating (0 to 100 scale, 0 is no effect, 100 is complete control) [4, 21] | Ragweed plant response rating (0 to 100 scale, 0 is no effect, 100 is complete control) [5, 21] | Ragweed plant response rating ([5]; 500 g ai/ha, preemergence, visual injury rating about 10 d after treatment, 0 to 100 scale (0 no effect, 100 complete control)) | Plant response rating, Kochia [8, 22] | Plant response rating, Blackgrass [10, 22] | Plant response rating, Corn [11, 22] | Plant response rating, Ryegrass, Italian [15, 22] | Plant response rating, Wheat [16, 22]
20%: pest or weed control at 500 g/ha ([4]; Amaranthus retroflexus, pre-emergence, 240 h, 500 g ai/ha, preemergence, visual injury rating about 10 d after treatment, 0 to 100 scale (0 no effect, 100 complete control), read-out: Pigweed plant response rating)
35%: pest or weed control at 250 g/ha ([19]; Oryza sativa, scale of 0 to 100 where 0 is no effect and 100 is complete control, read-out: Rice plant response rating)
80%: pest or weed control at 125 g/ha ([9]; Echinochloa crus-galli, post-emergence, 240 h, 125 g ai/ha, Postemergence, visual injury after approximately 10 d, 0 to 100 scale where 0 is no effect and 100 is complete control, read-out: Plant response rating, Barnyardgrass)
75: Ducksalad plant response rating [18, 23]
60%: pest or weed control at 500 g/ha ([1]; Bassia scoparia, pre-emergence, 240 h, 500 g ai/ha, preemergence, visual injury rating about 10 d after treatment, 0 to 100 scale (0 no effect, 100 complete control), read-out: Kochia plant response rating) | pest or weed control at 125 g/ha ([12]; Setaria faberi, post-emergence, 240 h, 125 g ai/ha, Postemergence, visual injury after approximately 10 d, 0 to 100 scale where 0 is no effect and 100 is complete control, read-out: Plant response rating, Foxtail, Giant)
90%: pest or weed control at 500 g/ha ([2]; Echinochloa crus-galli, pre-emergence, 240 h, 500 g ai/ha, preemergence, visual injury rating about 10 d after treatment, 0 to 100 scale (0 no effect, 100 complete control), read-out: Barnyardgrass plant response rating) | pest or weed control at 125 g/ha ([3]; Setaria faberi, pre-emergence, 240 h, 125 g ai/ha, Preemergence, visual injury rating after approximately 10 d, read-out: Foxtail, Giant plant response rating (0 to 100 scale, 0 is no effect, 100 is complete control)) | pest or weed control at 500 g/ha ([3]; Setaria faberi, pre-emergence, 240 h, 500 g ai/ha, preemergence, visual injury rating about 10 d after treatment, 0 to 100 scale (0 no effect, 100 complete control), read-out: Foxtail, Giant plant response rating) | pest or weed control at 250 g/ha ([17]; Echinochloa crus-galli, scale of 0 to 100 where 0 is no effect and 100 is complete control, read-out: Barnyardgrass plant response rating)
0%: pest or weed control at 125 g/ha ([6]; Lolium multiflorum, pre-emergence, 240 h, 125 g ai/ha, Preemergence, visual injury rating after approximately 10 d, read-out: Ryegrass, Italian plant response rating (0 to 100 scale, 0 is no effect, 100 is complete control)) | pest or weed control at 125 g/ha ([13]; Amaranthus retroflexus, post-emergence, 240 h, 125 g ai/ha, Postemergence, visual injury after approximately 10 d, 0 to 100 scale where 0 is no effect and 100 is complete control, read-out: Plant response rating, Pigweed) | pest or weed control at 125 g/ha ([14]; Ambrosia artemisiifolia, post-emergence, 240 h, 125 g ai/ha, Postemergence, visual injury after approximately 10 d, 0 to 100 scale where 0 is no effect and 100 is complete control, read-out: Plant response rating, Ragweed) | pest or weed control at 250 g/ha ([20]; Cyperus difformis, 0 to 100 scale where 0 is no effect and 100 is complete control, read-out: Sedge, Umbrella plant response rating)
60: Barnyardgrass plant response rating (0 to 100 scale, 0 is no effect, 100 is complete control) [2, 21]

CCC1(C(=O)Nc2cccc(F)c2F)C(=O)N(C)CC1c1cccc(C(F)(F)F)c1 (centres unmarked) [Compound 694]
0: Plant response rating, Kochia [1, 24] | Plant response rating, Kochia [1, 25] | Plant response rating, Pigweed [4, 26] | Plant response rating, Pigweed [4, 25] | Plant response rating, Ragweed [5, 26] | Plant response rating, Ragweed [5, 25] | Plant response rating, Ryegrass, Italian [6, 26] | Plant response rating, Galium [7, 27] | Plant response rating, Galium [7, 28] | Plant response rating, Kochia [8, 29] | Plant response rating, Kochia [8, 30] | Plant response rating, Corn [11, 29] | Plant response rating, Corn [11, 30] | Plant response rating, Ragweed [14, 27] | Plant response rating, Ragweed [14, 28] | Plant response rating, Ryegrass, Italian [15, 29] | Plant response rating, Wheat [16, 29] | Plant response rating, Wheat [16, 30] | Plant response rating, Barnyardgrass [17, 31] | Plant response rating, Rice [19, 31] | Sedge, Umbrella plant response rating [20, 23]
20: Plant response rating, Pigweed [13, 27] | Plant response rating, Ducksalad [18, 31]
50: Plant response rating, Barnyardgrass ([9]; 125 g ai/ha, visual rating after approx. 10 d) | Plant response rating, Foxtail, Giant [12, 27] | Plant response rating, Pigweed [13, 28] | Plant response rating, Ryegrass, Italian [15, 30]
80: Plant response rating, Foxtail, Giant [12, 28]
90: Plant response rating, Barnyardgrass [2, 25] | Plant response rating, Foxtail, Giant [3, 24] | Plant response rating, Foxtail, Giant [3, 25]
70: Plant response rating, Barnyardgrass [2, 24] | Plant response rating, Barnyardgrass [9, 28]
30: Plant response rating, Blackgrass [10, 30]
10: Plant response rating, Ryegrass, Italian [6, 25] | Plant response rating, Blackgrass ([10]; 125 g ai/ha, postemergence, visual rating after approx. 10 d, 0 to 100 scale (0 no effect, 100 complete control))
